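GI50 is the concentration that inhibits growth by half. Definition used: TGI = concentration required for complete inhibition of growth.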
How the values were obtained:
Experiment in all cases: DTP human tumour cell line panel, 384-well format
[1] = test system: KM12 colon
[2] = test system: NCI-H226 lung
[3] = test system: RPMI-8226 leukemia
[4] = test system: HCT-116 colon
[5] = test system: ACHN renal
[6] = test system: HT29 colon
[7] = test system: NCI-H522 lung
[8] = test system: MOLT-4 leukemia
[9] = test system: HCT-15 colon
[10] = test system: CAKI-1 renal
[11] = test system: COLO 205 colon
[12] = test system: HL-60(TB) leukemia
[13] = test system: 786-0 renal
[14] = test system: NCI-H460 NSCLC
[15] = test system: UACC-62 melanoma
[16] = test system: SW-620 colon
[17] = test system: SN12C renal
[18] = test system: NCI/ADR-RES ovarian
[19] = test system: A549 NSCLC
[20] = test system: SR leukemia
[21] = test system: SF-268 CNS
[22] = test system: PC-3 prostate
[23] = test system: CCRF-CEM leukemia
[24] = test system: HCC-2998 colon
[25] = test system: MDA-MB-435 melanoma
[26] = test system: M14 melanoma
[27] = test system: NCI-H23 lung
[28] = test system: TK-10 renal
[29] = test system: U251 glioblastoma

For `CN1CC[C@@H](NC(=O)Nc2ccc(C#N)cc2)C[C@@H]1c1nc2ccccc2[nH]1`, which GI50 [1] is on record?
Its GI50 is > 100 µM.

What about the TGI [1] of the same compound?
The TGI was > 100 µM.

And the GI50 [2]?
Its GI50 is > 59.6 µM.

What about the TGI [2] of the same compound?
The TGI was > 100 µM.

What about the GI50 [3] of the same compound?
Its GI50 is 54.2 µM.

And the TGI [3]?
The TGI was > 100 µM.

And the GI50 [4]?
The GI50 was 61.2 µM.

What about the TGI [4] of the same compound?
Its TGI is > 100 µM.

And the GI50 [5]?
Its GI50 is > 84.7 µM.

What about the TGI [5] of the same compound?
The TGI was > 100 µM.

What about the GI50 [6] of the same compound?
The GI50 was 69.3 µM.

And the TGI [6]?
Its TGI is > 100 µM.

What about the GI50 [7] of the same compound?
The GI50 was > 79.8 µM.

What about the TGI [7] of the same compound?
The TGI was > 100 µM.

What about the GI50 [8] of the same compound?
The GI50 was 18.2 µM.

And the TGI [8]?
The TGI was 36.4 µM.

What about the GI50 [9] of the same compound?
Its GI50 is > 87.8 µM.

And the TGI [9]?
Its TGI is > 100 µM.

What about the GI50 [10] of the same compound?
The GI50 was > 100 µM.

What about the TGI [10] of the same compound?
The TGI was > 100 µM.

And the GI50 [11]?
Its GI50 is > 85.1 µM.

And the TGI [11]?
Its TGI is > 100 µM.

And the GI50 [12]?
Its GI50 is > 87.7 µM.

What about the TGI [12] of the same compound?
Its TGI is > 100 µM.

And the GI50 [13]?
The GI50 was 40.4 µM.

What about the TGI [13] of the same compound?
Its TGI is > 100 µM.

And the GI50 [14]?
The GI50 was > 100 µM.

And the TGI [14]?
The TGI was > 100 µM.

What about the GI50 [15] of the same compound?
The GI50 was > 61.8 µM.

And the TGI [15]?
The TGI was > 100 µM.

What about the GI50 [16] of the same compound?
The GI50 was > 100 µM.

And the TGI [16]?
Its TGI is > 100 µM.

What about the GI50 [17] of the same compound?
Its GI50 is > 100 µM.

What about the TGI [17] of the same compound?
The TGI was > 100 µM.

And the GI50 [18]?
The GI50 was > 100 µM.

What about the TGI [18] of the same compound?
The TGI was > 100 µM.

What about the GI50 [19] of the same compound?
Its GI50 is > 87.9 µM.

And the TGI [19]?
The TGI was > 100 µM.

What about the GI50 [20] of the same compound?
Its GI50 is 23.4 µM.

What about the TGI [20] of the same compound?
The TGI was 65.2 µM.

And the GI50 [21]?
Its GI50 is > 86.7 µM.

And the TGI [21]?
The TGI was > 100 µM.

And the GI50 [22]?
The GI50 was > 100 µM.

What about the TGI [22] of the same compound?
Its TGI is > 100 µM.

And the GI50 [23]?
Its GI50 is 74.7 µM.

And the TGI [23]?
The TGI was > 100 µM.

And the GI50 [24]?
The GI50 was 47.7 µM.

And the TGI [24]?
The TGI was > 100 µM.

What about the GI50 [25] of the same compound?
The GI50 was > 100 µM.

What about the TGI [25] of the same compound?
Its TGI is > 100 µM.

And the GI50 [26]?
Its GI50 is > 100 µM.

And the TGI [26]?
Its TGI is > 100 µM.

What about the GI50 [27] of the same compound?
Its GI50 is > 75.2 µM.

What about the TGI [27] of the same compound?
The TGI was > 100 µM.

What about the GI50 [28] of the same compound?
Its GI50 is > 100 µM.

And the TGI [28]?
The TGI was > 100 µM.

What about the GI50 [29] of the same compound?
The GI50 was > 100 µM.

And the TGI [29]?
The TGI was > 100 µM.

From PubChem BioAssay (NCI)
